Patent US6319915A, “Benzazepine derivatives as inhibitors of hyperproliferation diseases” (Pfizer Inc., priority 2000, dated 2001)

Molecular target: T1, VEGF/GAG (glycosaminoglycan) (Homo sapiens, UniProt P15692)
T1 construct: purchased Repligen, Inc
T1 sequence (P15692 1-191 isoform P15692-4): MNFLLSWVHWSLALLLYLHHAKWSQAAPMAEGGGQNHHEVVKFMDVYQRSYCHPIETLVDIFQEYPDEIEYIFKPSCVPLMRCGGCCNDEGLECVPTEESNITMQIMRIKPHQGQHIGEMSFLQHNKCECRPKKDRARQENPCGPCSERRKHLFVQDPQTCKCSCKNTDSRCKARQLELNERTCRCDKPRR
Experiment: in vitro inhibition of VEGF/GAG (glycosaminoglycan) binding ([125I]heparin-16-mer / VEGF165 filter binding)
Details: purified VEGF165 20 nM, 60 minutes at room temperature, 0.16% DMSO
Method: The in vitro activity of the compounds of formula I in inhibiting VEGF/GAG (glycosaminoglycan) binding may be measured using the assay described in U.S. Pat. No. 5,795,860, the subject matter of which is incorporated herein by reference.
Using mixed cellulose ester 96-well filter plates, 150 μL of Dulbeccos PBS (phosphate buffered saline) containing 10% ovalbumin is added. Compound (5.0 μL) is added at a final concentration of […]. Compounds are dissolved in 8% DMSO (final DMSO concentration is 0.16%) and tested at concentrations of 32, 10, 3.2, 1.0, 0.32 and 0.10 μM. A mixture of [^125 I]heparin-16-mer (4500 cpm per well), purified VEGF165 (20 nM final concentration/well, prepared by Repligen, Inc.) and Dulbeccos PBS with 10% ovalbumin is added to the 96-well plate in a volume of 100 μL. Nonspecific binding is defined using 10 μM heparin-sodium from porcine intestinal mucosa. The assay plate is incubated for 60 minutes at room temperature, filtered using a Millipore filtration apparatus, the plastic bottom plate is removed and the filter plate is allowed to completely dry. The plate bottom is sealed with plastic plate seal and 25 μL of scintillation cocktail is added to each well. The top plate is sealed and is counted for radioactivity on a Microbeta Scintillation Counter. The assay is run in a final volume of 250 μL.

Row | Structure (SMILES) | IC50
1 | CC1(C)CN(C(=O)CN2C(=O)C(NC(=O)Nc3cccc(-c4nnn[nH]4)c3)COc3cc(F)ccc32)CC(C)(C)C1 (centres unmarked) [1-{3-Fluoro-8-oxo-9-[2-oxo-2-(3,3,5,5-tetramethyl-piperidin-1-yl)-ethyl]-6,7,8,9-tetrahydro-5-oxa-9-aza-benzocyclohepten-7-yl}-3-[3-(1H-tetrazol-5-yl)-phenyl]-urea] | 3.7 µM
2 | CC1(C)CN(C(=O)CN2C(=O)C(NC(=O)Nc3cccc(-c4nnn[nH]4)c3)CSc3ccccc32)CC(C)(C)C1 (centres unmarked) [1-{4-Oxo-5-[2-oxo-2-(3,3,5,5-tetramethyl-piperidin-1-yl)-ethyl]-2,3,4,5-tetrahydro-benzo[b][1,4]thiazepin-3-yl}-3-[3-(1H-tetrazol-5-yl)-phenyl]-urea] | 6.7 µM
3 | COc1ccccc1C1CC(NC(=O)Nc2cccc(C(=O)NS(C)(=O)=O)c2)C(=O)N(CC(=O)NC2(C)CCCCC2)C(c2ccccc2)C1 (centres unmarked) [2-[3-[3-(3-Methanesulfonylaminocarbonyl-phenyl)-ureido]-5-(2-methoxy-phenyl)-2-oxo-7-phenyl-azepan-1-yl]-N-(1-methyl-cyclohexyl)-acetamide] | 3 µM
4 | Cc1ccccc1C1CC(NC(=O)Nc2cccc(C(=O)Nc3nnc(C(F)(F)F)s3)c2)C(=O)N(CC(=O)NC(C)(C)C)C(c2ccccc2)C1 (centres unmarked) [3-{3-[1-(tert-Butylcarbamoyl-methyl)-2-oxo-7-phenyl-5-o-tolyl-azepan-3-yl]-ureido}-N-(5-trifluoromethyl-[1,3,4]thiadiazol-2-yl)-benzamide] | 8.6 µM
5 | Cc1ccccc1C1CC(NC(=O)Nc2cccc(C(=O)O)c2)C(=O)N(CC(=O)NC(C)(C)C)C(c2ccccc2)C1 (centres unmarked) [3-{3-[1-(tert-Butylcarbamoyl-methyl)-2-oxo-7-phenyl-5-o-tolyl-azepan-3-yl]-ureido}-benzoic acid] | 20 µM
6 | COc1ccccc1C1CC(NC(=O)Nc2cccc(C(=O)O)c2)C(=O)N(CC(=O)NC(C)(C)C)C(c2ccccc2)C1 (centres unmarked) [3-{3-[1-(tert-Butylcarbamoyl-methyl)-5-(2-methoxy-phenyl)-2-oxo-7-phenyl-azepan-3-yl]-ureido}-benzoic acid] | 4.3 µM
7 | Cc1ccc2c(c1)N(CC(=O)NC(C)(C)C)C(=O)C(NC(=O)Nc1cccc(C(=O)O)c1)CC2c1ccccc1 (centres unmarked) [3-{3-[1-(tert-Butylcarbamoyl-methyl)-8-methyl-2-oxo-5-phenyl-2,3,4,5-tetrahydro-1H-benzo[b]azepin-3-yl]-ureido}-benzoic acid] | 9.8 µM
8 | Cc1ccccc1C1CC(NC(=O)Nc2cccc(-c3nnn[nH]3)c2)C(=O)N(CC(=O)NC(C)(C)C)C(c2ccccc2)C1 (centres unmarked) [N-tert-Butyl-2-(2-oxo-7-phenyl-3-{3-[3-(1H-tetrazol-5-yl)-phenyl]-ureido}-5-o-tolyl-azepan-1-yl)-acetamide] | 3.7 µM
9 | Cc1ccc2c(c1)N(CC(=O)NC(C)(C)C)C(=O)C(NC(=O)Nc1cccc(-c3nnn[nH]3)c1)CC2C1CCCCC1 (centres unmarked) [N-tert-Butyl-2-(5-cyclohexyl-8-methyl-2-oxo-3-{3-[3-(1H-tetrazol-5-yl)-phenyl]-ureido}-2,3,4,5-tetrahydro-benzo[b]azepin-1-yl)-acetamide] | 4.3 µM
10 | COc1ccccc1C1CC(NC(=O)Nc2cccc(C(=O)NS(C)(=O)=O)c2)C(=O)N(CC(=O)NC(C)(C)C)C(c2ccccc2)C1 (centres unmarked) [N-tert-Butyl-2-[3-[3-(3-methanesulfonylaminocarbonyl-phenyl)-ureido]-5-(2-methoxy-phenyl)-2-oxo-7-phenyl-azepan-1-yl]-acetamide] | 5.8 µM
11 | Cc1ccc2c(c1)N(CC(=O)NC(C)(C)C)C(=O)C(NC(=O)Nc1cccc(C(=O)NS(C)(=O)=O)c1)CC2c1ccccc1 (centres unmarked) [N-tert-Butyl-2-{3-[3-(3-methanesulfonylaminocarbonyl-phenyl)-ureido]-8-methyl-2-oxo-5-phenyl-2,3,4,5-tetrahydro-benzo[b]azepin-1-yl}-acetamide] | 11 µM

The next molecules have a lower IC50 than those just listed; values first:

Row | IC50 | Structure (SMILES)
12 | 2.4 µM | Cc1ccccc1C1CC(NC(=O)Nc2cccc(C(=O)NS(=O)(=O)Cc3ccccc3)c2)C(=O)N(CC(=O)NC(C)(C)C)C(c2ccccc2)C1 (centres unmarked) [N-tert-Butyl-2-{2-oxo-7-phenyl-3-[3-(3-phenylmethanesulfonylaminocarbonyl-phenyl)-ureido]-5-o-tolyl-azepan-1-yl}-acetamide]
13 | 2.4 µM | Cc1cccc(NC(=O)NC2CC(c3ccccc3C)CC(c3ccccc3)N(CC(=O)O)C2=O)c1 (centres unmarked) [[2-Oxo-7-phenyl-5-o-tolyl-3-(3-m-tolyl-ureido)-azepan-1-yl]-acetic acid]
14 | 2.3 µM | Cc1ccccc1C1CC(NC(=O)Nc2cccc(C(=O)Nc3nnn[nH]3)c2)C(=O)N(CC(=O)NC2(C)CCCCC2)C(c2ccccc2)C1 (centres unmarked) [3-(3-{1-[(1-Methyl-cyclohexylcarbamoyl)-methyl]-2-oxo-7-phenyl-5-o-tolyl-azepan-3-yl}-ureido)-N-(1H-tetrazol-5-yl)-benzamide]
15 | 2 µM | Cc1ccccc1C1CC(NC(=O)Nc2cccc(-c3nnn[nH]3)c2)C(=O)N(CC(=O)NC2(C)CCCCC2)C(c2ccccc2)C1 (centres unmarked) [N-(1-Methyl-cyclohexyl)-2-(2-oxo-7-phenyl-3-{3-[3-(1H-tetrazol-5-yl)-phenyl]-ureido}-5-o-tolyl-azepan-1-yl)-acetamide]
16 | 1.9 µM | COc1ccccc1C1CC(NC(=O)Nc2cccc(-c3nnn[nH]3)c2)C(=O)N(CC(=O)NC2(C)CCCCC2)C(c2ccccc2)C1 (centres unmarked) [2-(5-(2-Methoxy-phenyl)-2-oxo-7-phenyl-3-{3-[3-(1H-tetrazol-5-yl)-phenyl]-ureido}-azepan-1-yl)-N-(1-methyl-cyclohexyl)-acetamide]
17 | 1.7 µM | CC1(C)CCCC(C)(C)N1C(=O)CN1C(=O)C(NC(=O)Nc2cccc(-c3nnn[nH]3)c2)COc2cc(F)ccc21 (centres unmarked) [1-{3-Fluoro-8-oxo-9-[2-oxo-2-(2,2,6,6-tetramethyl-piperidin-1-yl)-ethyl]-6,7,8,9-tetrahydro-5-oxa-9-aza-benzocyclohepten-7-yl}-3-[3-(1H-tetrazol-5-yl)-phenyl]-urea]
18 | 1.7 µM | COc1ccccc1C1CC(NC(=O)Nc2cccc(C(=O)Nc3nnn[nH]3)c2)C(=O)N(CC(=O)NC(C)(C)C)C(c2ccccc2)C1 (centres unmarked) [3-{3-[1-(tert-Butylcarbamoyl-methyl)-5-(2-methoxy-phenyl)-2-oxo-7-phenyl-azepan-3-yl]-ureido}-N-(1H-tetrazol-5-yl)-benzamide]
19 | 1.7 µM | Cc1ccccc1C1CC(NC(=O)Nc2cccc(C(=O)NS(=O)(=O)C(F)(F)F)c2)C(=O)N(CC(=O)NC2(C)CCCCC2)C(c2ccccc2)C1 (centres unmarked) [N-(1-Methyl-cyclohexyl)-2-{2-oxo-7-phenyl-5-o-tolyl-3-[3-(3-trifluoromethanesulfonylaminocarbonyl-phenyl)-ureido]-azepan-1-yl}-acetamide]
20 | 1.6 µM | Cc1ccccc1C1CC(NC(=O)Nc2ccc3[nH]nnc3c2)C(=O)N(CC(=O)NC(C)(C)C)C(c2ccccc2)C1 (centres unmarked) [2-{3-[3-(1H-Benzotriazol-5-yl)-ureido]-2-oxo-7-phenyl-5-o-tolyl-azepan-1-yl}-N-tert-butyl-acetamide]
21 | 1.4 µM | Cc1ccccc1C1CC(NC(=O)Nc2cccc(C(=O)NS(=O)(=O)c3ccccc3)c2)C(=O)N(CC(=O)NC(C)(C)C)C(c2ccccc2)C1 (centres unmarked) [2-{3-[3-(3-Benzenesulfonylaminocarbonyl-phenyl)-ureido]-2-oxo-7-phenyl-5-o-tolyl-azepan-1-yl}-N-tert-butyl-acetamide]
22 | 0.9 µM | COc1ccccc1C1CC(NC(=O)Nc2cccc(C(=O)Nc3nnn[nH]3)c2)C(=O)N(CC(=O)NC2(C)CCCCC2)C(c2ccccc2)C1 (centres unmarked) [3-(3-{5-(2-Methoxy-phenyl)-1-[(1-methyl-cyclohexylcarbamoyl)-methyl]-2-oxo-7-phenyl-azepan-3-yl}-ureido)-N-(1H-tetrazol-5-yl)-benzamide]
23 | 0.7 µM | COc1ccccc1C1CC(NC(=O)Nc2cccc(-c3nnn[nH]3)c2)C(=O)N(CC(=O)NC(C)(C)C)C(c2ccccc2)C1 (centres unmarked) [N-tert-Butyl-2-(5-(2-methoxy-phenyl)-2-oxo-7-phenyl-3-{3-[3-(1H-tetrazol-5-yl)-phenyl]-ureido}-azepan-1-yl)-acetamide]
